In ChEMBL document CHEMBL4725416, “Structure-Based Discovery of Novel Ligands for the Orexin 2 Receptor” (J Med Chem, 2020):
Calls of active or inactive are those of the source. No rule for the calls is given here.

Tests used:
Assay type in all cases: cell-based
[1] = (§1) Displacement of [3H]-EMPA from human orexin 2 receptor expressed in CHO cells incubated for 2 hrs by whole cell radioligand binding assay; details: for IC50: CHO
[2] = target: T1, Orexin/Hypocretin receptor type 1 (Homo sapiens, UniProt O43613); test: (§2) Displacement of [3H]-[…] from human orexin 1 receptor expressed in CHO cells incubated for 2 hrs by whole cell radioligand binding assay
T1 sequence (O43613 whole entry): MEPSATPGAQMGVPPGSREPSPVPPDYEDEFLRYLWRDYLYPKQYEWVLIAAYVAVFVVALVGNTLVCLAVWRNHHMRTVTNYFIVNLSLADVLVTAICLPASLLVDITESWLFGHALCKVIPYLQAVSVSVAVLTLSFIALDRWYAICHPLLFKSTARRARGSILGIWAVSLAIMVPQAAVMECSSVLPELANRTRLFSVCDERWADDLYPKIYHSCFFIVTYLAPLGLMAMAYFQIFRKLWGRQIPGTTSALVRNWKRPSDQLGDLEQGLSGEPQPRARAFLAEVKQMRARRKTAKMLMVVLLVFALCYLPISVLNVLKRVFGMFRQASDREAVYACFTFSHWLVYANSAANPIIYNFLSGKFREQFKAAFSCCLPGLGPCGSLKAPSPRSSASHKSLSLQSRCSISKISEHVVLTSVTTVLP

Homo sapiens = species on record: Homo sapiens; test: as §1
[3] = target: T2, Orexin/Hypocretin receptor type 1 (Homo sapiens) (UniProt O43613); test: as §2
T2 sequence (whole entry): T1 sequence (O43613 whole entry)

Row | SMILES | IC50 [1] [µM] | IC50 [2] [µM] | pKi (Homo sapiens) | pKi [3] | other results
1 | CCC(=O)N1CCCN([C@@H](C)C(=O)Nc2ccccc2C(C)=O)CC1 | > 100 |  |  |  | 
2 | CN(Cc1[nH]cc[n+]1Cc1ccccc1)C(=O)c1cccc2cc[nH][n+]12 | > 100 |  |  |  | 
3 | Cc1nn(-c2ccccc2)c(N2CCCC2)c1/C=N/n1cnc2c(cnn2-c2ccccc2)c1=O | > 100 | > 100 |  |  | 
4 | CCN(Cc1cccnc1)C(=O)CN(c1ccc(OC)nc1)S(=O)(=O)c1ccccc1C |  |  |  |  | pKi [1]: 8.17
5 | COc1cc(=O)n2c(c1C(=O)N(C)[C@H](C)c1ccco1)CCN(C(=O)C1(c3ccccc3)CC1)CC2 | > 100 | > 100 |  |  | 
6 | Cn1ccc2c(C(=O)N3CCN(Cc4cscn4)CC3)cccc21 |  |  | inactive | inactive | 
7 | Cc1ccc2c(c1)C(=O)N(CCC(=O)N1CCCc3ccccc31)C2=O |  |  | inactive | inactive | 
8 | O=C(OCCCn1c(=O)[nH]c2ccccc21)c1ccc2c(c1)C(=O)N(c1ccc(Cl)cc1)C2=O |  |  | inactive | inactive | 
9 | Cn1c(-c2ccccc2)c(C(=O)COC(=O)c2ccc3c(=O)n4c(nc3c2)CCC4)c2ccccc21 |  | > 100 | inactive |  | 
10 | O=C(OCC(=O)N1N=C(c2ccc(Cl)cc2)C[C@H]1c1ccco1)c1ccc(-n2cccn2)nc1 |  |  | inactive | inactive | 
11 | O=C(c1cnc(-c2ccccc2)s1)N1CCC[C@H]1c1ccncc1 | > 100 | > 100 |  |  | 
12 | C[C@H](NC(=O)[C@H]1CC(=O)N(c2ccc3c(c2)CCC3)C1)c1cccnc1 |  |  | inactive | inactive | 
13 | Fc1ccccc1COc1cccc(CNCc2ccccn2)c1 |  | > 100 |  |  | pKi [1]: 4.28
14 | O=C(c1cc2c(s1)-c1ccccc1CC2)N1CCN(Cc2cc(=O)n3ccsc3n2)CC1 | > 100 | > 100 |  |  | 
15 | Cc1cc(=O)oc2cc(OCC(=O)c3cccc4ccccc34)ccc12 |  |  | inactive | inactive | 
16 | Cc1[nH]c2ccc(C(=O)N3CCN(Cc4ccc5c(c4)OCO5)CC3)cc2c1C | > 100 | > 100 |  |  | 
17 | O=C1CCCN1c1cccc(C(=O)N(Cc2ccc(F)cc2)C2CC2)c1 | > 100 |  |  |  | 
18 | CC(=O)N1N=C(c2cn(C(C)=O)c3ccccc23)O[C@@H]1c1cccnc1 | > 100 | > 100 |  |  | 
19 | O=C(C1CC1)N1CCC[C@@H](Cn2cc(-c3cnc(-c4ccco4)nc3)nn2)C1 |  |  | inactive | inactive | 
20 | Cc1nn(-c2ccccc2)c(C)c1C(=O)O[C@@H](C(N)=O)c1ccccc1 |  |  | inactive | inactive | 
21 | COc1cc(=O)n2c(c1C(=O)N(C)Cc1nonc1C)CCN(C(=O)C1(c3ccccc3)CC1)CC2 | > 100 | > 100 |  |  | 
22 | Cc1cccc(C)c1NC(=O)CCCN1C(=O)c2cccnc2C1=O |  |  |  |  | pKi [1]: 4.56; Ki [2]: 33.9 µM
23 | O=C1Nc2cc(C(=O)N3CCN(Cc4ccc5c(c4)OCO5)CC3)ccc2N2CCCC[C@@H]12 | > 100 | > 100 |  |  | 
24 | O=C(CCCn1nnc2ccccc2c1=O)NC1Cc2ccccc2C1 |  | > 100 |  |  | pKi [1]: 4.4
25 | Cc1cc(C(C)(C)C)cc(C)c1Cn1cnc2c1c(=O)n(C)c(=O)n2C |  |  | inactive | inactive | 

Row | SMILES | IC50 [1] [µM] | IC50 [2] [µM] | pKi (Homo sapiens) | pKi [3] | other results
26 | O=C(CCCN1C(=O)c2cccc3cccc(c23)C1=O)Oc1ccc(F)cc1 |  |  | inactive | inactive | 
27 | C=CCOc1cccc([C@H]2c3c(oc4ccc(C)cc4c3=O)C(=O)N2Cc2ccco2)c1 |  |  | inactive | inactive | 
28 | CCc1c(C)c2ccc(OCC(=O)c3ccc(F)cc3)cc2oc1=O |  |  | inactive | inactive | 
29 | COc1cccc([C@H]2c3c(oc4ccccc4c3=O)C(=O)N2Cc2ccccc2)c1 |  |  | inactive | inactive | 
30 | CS(=O)(=O)N1CCc2cc(S(=O)(=O)N3CCN(Cc4ccc5c(c4)OCO5)CC3)ccc21 |  |  | inactive | inactive | 
31 | COc1cc(=O)n2c(c1C(=O)N(C)[C@@H](C)c1ccco1)CCN(C(=O)c1c(F)cccc1F)CC2 |  |  | inactive | inactive | 
32 | COc1cc2cc(C(=O)N3CCN(Cc4ccc5c(c4)OCO5)CC3)c(=O)oc2cc1OC |  |  | inactive | inactive | 
33 | COc1cccc(-c2nc(C(=O)OCc3cccnc3)c(C)[nH]2)c1 |  |  |  |  | pKi [1]: 4.64; Ki [2]: 14.8 µM
34 | O=C1c2oc3ccc(Cl)cc3c(=O)c2[C@H](c2cccc([N+](=O)[O-])c2)N1Cc1ccccc1 |  |  | inactive | inactive | 
35 | O=C(CCCn1cnc2ccccc2c1=O)NCc1ccccn1 |  |  | inactive | inactive | 
36 | CCOC(=O)c1cc(C(=O)N[C@@H](C)c2ccccc2)c(C)[nH]c1=O |  |  | inactive | inactive | 
37 | O=S(=O)([N-]c1nc2ccccc2nc1-[n+]1ccc(Oc2ccccc2)cc1)c1ccccc1 |  |  | inactive | inactive | 
38 | O=C(c1ccccc1)[C@H]1CCCN(C(=O)CCc2nc(-c3ccco3)no2)C1 |  | > 100 |  |  | 
39 | CN(Cc1[nH]cc[n+]1C)C(=O)CCCc1c[nH]c2ccccc12 | > 100 |  |  |  | 
40 | Cc1nc(-c2ncccn2)sc1C(=O)OCCn1c(C)nc2ccccc21 | > 100 |  |  |  | 
41 | CCc1cc2c(=O)c(-c3ccc4c(c3)OCCCO4)coc2cc1OC(=O)N1CCOCC1 |  |  | inactive | inactive | 
42 | O=C(c1ccc(N2C(=O)CCC2=O)cc1)N1CCN(Cc2nc(C3CC3)cs2)CC1 |  |  | inactive | inactive | 
43 | O=C(CCCn1nnc2ccccc2c1=O)NCc1ccccn1 |  |  | inactive | inactive | 
44 | Cc1nc(-c2ccc(Cl)c(S(=O)(=O)N3CCC[C@@H](C(=O)N4CCc5ccccc54)C3)c2)no1 | > 100 | > 100 |  |  | 
45 | c1ccc(-c2n[nH]cc2-c2nc3c(cnn3Cc3ccncc3)[nH]2)cc1 |  |  |  |  | pKi [1]: 4.82; Ki [2]: 24.5 µM
46 | Cc1cc([C@@H]2CCCCN2C(=O)c2ccc(-c3cc[nH]n3)cc2)no1 | > 100 | > 100 |  |  | 
47 | Cc1ccc(C(=O)[C@H](C)Oc2cccc(N3C(=O)C4C5C=CC(C5)C4C3=O)c2)cc1 (stereo partly specified) | > 100 | > 100 |  |  | 
48 | CN(CCc1cccc2ccccc12)C(=O)c1c[nH]c(=O)c(Cl)c1 |  |  |  |  | pKi [1]: 4.89; Ki [2]: 14.8 µM
49 | O=C(CCC(=O)c1ccc2c(c1)OCCO2)Nc1cccc(C#Cc2ccccn2)c1 | > 100 | > 100 |  |  | 
50 | Cc1ccc2c(C)c(C(=O)N3CCN(Cc4ccccn4)CC3)oc2c1C | > 100 | > 100 |  |  | 

Row | SMILES | IC50 [1] [µM] | IC50 [2] [µM] | pKi (Homo sapiens) | pKi [3] | other results
51 | Cc1ccc(C(=O)N2CCN(Cc3nnc(-c4ccco4)o3)CC2)cc1F | > 100 |  |  |  | 
52 | Cc1nc(-c2cc(C)n(CC(=O)N3CCC[C@H]3c3ccncc3)c2C)cs1 |  |  |  | inactive | 
53 | COc1cccc(-c2nc([C@@H]3CC(=O)N(Cc4ccccc4)C3)no2)c1 | > 100 | > 100 |  |  | 
54 | Cc1ccc(-n2nccn2)c(C(=O)N2CCN(c3nc4cc(Cl)ccc4o3)CC[C@H]2C)c1 [SUVOREXANT] |  |  |  |  | pKi [1]: 8.53
55 | CN(Cc1[nH]cc[n+]1C)C(=O)C[C@H]1CN(Cc2ccccc2)CCO1 |  | > 100 | inactive |  | 
56 | C[C@@H]1CN(c2cccc(Cl)c2)C(=O)CN1C(=O)c1cccc2ccccc12 | > 100 | > 100 |  |  | 
57 | O=C(/C=C/c1cccc(F)c1)N1CCOc2c(cc(-c3cccnc3)cc2OC[C@H]2CCCCO2)C1 | > 100 |  |  |  | 
58 | O=C1/C(=C/c2ccc(N3CCOCC3)cc2)c2ccccc2N1c1ccccc1 |  |  |  |  | Ki [2]: 17.8 µM
59 | COc1ccc2c(c1)c(CC(=O)NCc1ccccn1)c(C)n2C(=O)c1ccc(Cl)cc1 | > 5 | > 5 |  |  | 
60 | O=C1c2ccccc2C(=O)N1CCc1nc(-c2cnccn2)no1 | > 100 |  |  |  | 
61 | Cc1nc(C(=O)N2CCC[C@H]2Cc2nnc(-c3ccccc3)o2)c(-c2ccccc2F)s1 |  |  |  |  | pKi [1]: 6.7; Ki [2]: 0.00389 µM
62 | Cc1nc(/C=C/C(=O)Oc2ccc3c(=O)c(-c4c(F)cccc4Cl)c(C)oc3c2)cs1 | > 100 | > 100 |  |  | 
63 | Cc1ccc([C@H](CCO)n2cc(-c3ccnc4ccccc34)nn2)cc1 | > 100 | > 100 |  |  | 
64 | Cc1nc(COc2ccc(C(=O)N3CCC[C@@H]3c3ccc4c(c3)OCCO4)cc2)cs1 |  | > 100 |  |  | 
65 | COc1cccc(CN2CC3(CCN(Cc4nccs4)CC3)CC2=O)c1 | > 100 |  |  |  | 
66 | O=S(=O)(c1cc(F)cc(F)c1)N1CCN(Cc2csc(-c3ccco3)n2)CC1 | > 100 | > 100 |  |  | 
67 | O=C(Cc1ccc(Cl)cc1)N1CCC(c2noc(-c3ccccn3)n2)CC1 | > 100 |  |  |  | 
68 | CN(C)S(=O)(=O)c1cccc(C(=O)N(CCc2ccccc2)c2nc3ccccc3s2)c1 | > 100 |  |  |  | 
69 | COc1ccc2cc(CN(C)C(=O)COC(=O)c3c(F)cccc3F)ccc2c1 |  | > 100 |  |  | 
70 | O=C(c1cc(S(=O)(=O)N2CCOCC2)ccc1Cl)N1CCn2c1nc1ccccc12 | > 100 | > 100 |  |  | 
71 | CC1(C)OC[C@H](NC(=O)Nc2ccc(Br)cc2Br)[C@H](c2ccccc2)O1 |  |  |  |  | pKi [1]: 8.18; Ki [2]: 1.35 µM
72 | CN1C(=O)c2ccc(C(=O)OCCCn3c(=O)[nH]c4ccccc43)cc2C1=O | > 100 | > 100 |  |  | 
73 | O=C1N=C(O)/C(=C\c2ccccc2OCc2ccccc2F)C(=O)N1c1ccc2c(c1)OCO2 |  | > 100 |  |  | 
74 | O=S(=O)(c1ccc2c(c1)OCCO2)N1CCN(Cc2nc(-c3ccco3)cs2)CC1 |  | > 100 | inactive |  | 
75 | O=C(c1ccc(OCc2cn3ccccc3n2)cc1)N1CCC[C@@H]1c1ccc2c(c1)OCCO2 | > 100 | > 100 |  |  | 
